From PubChem BioAssay (NCI) come the findings set out here.

SMILES strings stand for the structures.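 A five-concentration, 48-hour dose response in 96-well plates underlies each endpoint, interpolated linearly between surrounding concentrations. Here, GI50 denotes the concentration required for 50% inhibition of growth. TGI: total growth inhibition.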

Among the test systems are SK-OV-3 ovarian; EKVX NSCLC; OVCAR-8 ovarian; OVCAR-4 ovarian; MOLT-4 leukemia; SK-MEL-2 melanoma; M14 melanoma; NCI-H522 lung; A549 NSCLC.
What all share (assay): NCI tumour cell line growth inhibition, 48 h

In the case of `Cc1ccc(Sc2sc(-c3ccccc3)nc2[P+](c2ccccc2)(c2ccccc2)c2ccccc2)cc1`, the GI50 was 0.282 µM with SK-OV-3 ovarian; 0.266 µM in the test with EKVX NSCLC; 0.305 µM in the test on OVCAR-8 ovarian; 0.305 µM with OVCAR-4 ovarian; 0.363 µM in the test on MOLT-4 leukemia; 0.275 µM in the test on SK-MEL-2 melanoma. The figures for the GI50 in the test on M14 melanoma and with NCI-H522 lung were 0.326 µM and 0.306 µM, respectively. Also, the TGI in the test with SK-OV-3 ovarian was 0.863 µM; with EKVX NSCLC it was 0.932 µM; with OVCAR-8 ovarian, 1.67 µM; in the test with OVCAR-4 ovarian, 1.09 µM; in the test on MOLT-4 leukemia it was 1.59 µM; with SK-MEL-2 melanoma, 0.808 µM. Also, the TGI was found to be 1.3 µM with M14 melanoma and 1.25 µM in the test on NCI-H522 lung.

Turning to `CC(=O)/C=C/c1ccc(C)cc1`, the TGI in the test on SK-OV-3 ovarian, with EKVX NSCLC, with OVCAR-8 ovarian, in the test with OVCAR-4 ovarian, in the test with MOLT-4 leukemia and with SK-MEL-2 melanoma was more than 100 µM each time. For the same compound, the TGI with A549 NSCLC, with M14 melanoma and in the test with NCI-H522 lung was more than 100 µM throughout.

As for `O=c1c2ccccc2nc(-c2cccc(Cl)c2)n1NCC1(O)OCC(O)C(O)C1O` (stereo not drawn), the TGI in the test on SK-OV-3 ovarian, with EKVX NSCLC, in the test on OVCAR-8 ovarian, in the test on OVCAR-4 ovarian, in the test with MOLT-4 leukemia and in the test with SK-MEL-2 melanoma was more than 100 µM throughout. Moreover, the TGI in the test with A549 NSCLC, in the test with M14 melanoma and in the test on NCI-H522 lung was more than 100 µM in each case.

For `O=C(/C=C/c1ccccc1Cl)c1ccc(Cl)cc1Cl`, the TGI was found to be 35.6 µM in the test on SK-OV-3 ovarian; 32.9 µM with EKVX NSCLC; 29.3 µM with OVCAR-8 ovarian; 29.7 µM with OVCAR-4 ovarian; 26 µM in the test with MOLT-4 leukemia; 39.8 µM in the test with A549 NSCLC. The compound also came in with a TGI in the test on M14 melanoma of 32 µM.

Turning to `Cc1ccc(Oc2ccc([N+](=O)[O-])cc2[N+](=O)[O-])c(C)c1`, the TGI is more than 100 µM with SK-OV-3 ovarian; more than 100 µM in the test on EKVX NSCLC; more than 100 µM in the test on OVCAR-8 ovarian; more than 100 µM in the test with OVCAR-4 ovarian; 79.4 µM with MOLT-4 leukemia; more than 100 µM with SK-MEL-2 melanoma. Moreover, the TGI with A549 NSCLC and with M14 melanoma was more than 100 µM each time.

For the compound `COc1cc2c(cn1)[nH]c1ccccc12`, the TGI with SK-OV-3 ovarian, with EKVX NSCLC, in the test with OVCAR-8 ovarian, in the test with OVCAR-4 ovarian, in the test with MOLT-4 leukemia and in the test on SK-MEL-2 melanoma was more than 100 µM throughout. For the same compound, the TGI in the test on A549 NSCLC, in the test on M14 melanoma and in the test with NCI-H522 lung was more than 100 µM each time.

Consider `C1=Nc2ccccc2C=Nc2ccccc2C=Nc2ccccc2C=Nc2ccccc21.[Cl-].[Pt+2]`, for which the GI50 in the test with SK-OV-3 ovarian was 24.4 µM; in the test on EKVX NSCLC it was 37.5 µM; in the test on OVCAR-8 ovarian it was 17.5 µM; in the test with MOLT-4 leukemia it was 14.1 µM; in the test on A549 NSCLC it was 28.7 µM; in the test with M14 melanoma, 30.2 µM. Also, in the test on NCI-H522 lung, the GI50 is 15.8 µM. The TGI with SK-OV-3 ovarian is 65.9 µM; with EKVX NSCLC, more than 100 µM; in the test on OVCAR-8 ovarian, more than 100 µM; in the test on MOLT-4 leukemia, 49.3 µM; in the test on A549 NSCLC, more than 100 µM; in the test with M14 melanoma, more than 100 µM. Moreover, in the test on NCI-H522 lung, the TGI came out at 34.8 µM.

As for `Cc1c2c(cc3c(=O)ccn(CCN(C)C)c13)c(=O)ccn2CCN(C)C`, the TGI worked out at 37.5 µM with SK-OV-3 ovarian; 29 µM in the test on EKVX NSCLC; 21.8 µM with OVCAR-8 ovarian; 18.6 µM in the test with OVCAR-4 ovarian; 13.6 µM in the test on MOLT-4 leukemia; 44.4 µM in the test with SK-MEL-2 melanoma. Further, the TGI was determined as 48.9 µM in the test on A549 NSCLC, 25 µM in the test with M14 melanoma and 21.1 µM in the test on NCI-H522 lung.

Turning to `Cc1cccc(C)c1NC(=O)CCc1n[nH]c(=S)o1`, the TGI in the test on SK-OV-3 ovarian, in the test on EKVX NSCLC, in the test with OVCAR-8 ovarian, in the test with OVCAR-4 ovarian, in the test with MOLT-4 leukemia and with A549 NSCLC was more than 100 µM throughout. Also, the TGI in the test on M14 melanoma and in the test with NCI-H522 lung was more than 100 µM throughout.

Consider `Cc1ccc2c(c1)CNc1ccc(C)cc1CN2`, for which the TGI in the test with SK-OV-3 ovarian, with EKVX NSCLC, in the test on OVCAR-8 ovarian, in the test on OVCAR-4 ovarian, with MOLT-4 leukemia and with SK-MEL-2 melanoma was more than 100 µM each time. Further, the TGI in the test on A549 NSCLC, in the test on M14 melanoma and in the test with NCI-H522 lung was more than 100 µM throughout.

With `COc1ccc(-c2c(N)[n+]([O-])c3ccccc3[n+]2[O-])cc1OC`, the TGI with SK-OV-3 ovarian, in the test with EKVX NSCLC, with OVCAR-8 ovarian, in the test with OVCAR-4 ovarian, in the test with MOLT-4 leukemia and in the test with SK-MEL-2 melanoma was more than 100 µM each time. The TGI with A549 NSCLC, in the test on M14 melanoma and with NCI-H522 lung was more than 100 µM in each case.

In the case of `COc1cc(Nc2nc3ccc(C(F)(F)F)cc3nc2-c2ccccc2)cc(OC)c1OC`, the TGI is more than 100 µM in the test on SK-OV-3 ovarian; 79.7 µM in the test on EKVX NSCLC; more than 100 µM in the test on OVCAR-8 ovarian; more than 100 µM in the test on OVCAR-4 ovarian; more than 100 µM in the test with MOLT-4 leukemia; more than 100 µM in the test with SK-MEL-2 melanoma. In addition, the TGI in the test on A549 NSCLC is more than 100 µM; with M14 melanoma, more than 100 µM; in the test with NCI-H522 lung, 93.6 µM.

Consider `NNC(=O)/C(NC(=O)c1ccccc1)=C(\N)c1ccc(Cl)cc1`, for which the TGI with SK-OV-3 ovarian, in the test with EKVX NSCLC, in the test on OVCAR-8 ovarian, in the test with OVCAR-4 ovarian, in the test with MOLT-4 leukemia and with SK-MEL-2 melanoma was more than 100 µM throughout. Moreover, the TGI in the test with A549 NSCLC, in the test on M14 melanoma and in the test with NCI-H522 lung was more than 100 µM in each case.

`N#CC1C2CCC3(CC2CCN1C(=O)c1ccccc1)OCCO3` (stereo not drawn): the TGI in the test with SK-OV-3 ovarian is more than 100 µM; in the test with EKVX NSCLC, more than 100 µM; with OVCAR-8 ovarian, more than 100 µM; in the test on OVCAR-4 ovarian, more than 100 µM; with MOLT-4 leukemia it was more than 100 µM; with SK-MEL-2 melanoma, 61.9 µM. The TGI in the test on A549 NSCLC and in the test on M14 melanoma was more than 100 µM throughout.
